Measurements taken from ChEMBL document CHEMBL1201862, “PubChem BioAssay data set” (2004).
Counter-ions that a name gives are not always drawn.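 Where inhibition never reached the appropriate level, the endpoint shown equals the highest concentration tested. Otherwise, values were interpolated linearly from a five-concentration, 48-hour dose response in 96-well plates. GI50 is the concentration that inhibits growth by half.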 Activity calls are given as the source filed them. No stated cut-off is given here; in the data, active = GI50 up to about 1.1 µM and inactive = higher.

Legend:
Assay in all cases: NCI tumour cell line growth inhibition, 48 h
ACHN = test system: ACHN
CAKI-1 = test system: CAKI-1
COLO 205 = test system: COLO 205
HL-60 = test system: HL-60
HOP-62 = test system: HOP-62
IGROV-1 = test system: IGROV-1
LOX IMVI = test system: LOX IMVI
MCF7 = test system: MCF7
MDA-N = test system: MDA-N
NCI-H23 = test system: NCI-H23
OVCAR-5 = test system: OVCAR-5
RPMI-8226 = test system: RPMI-8226
SF-295 = test system: SF-295
SK-MEL-28 = test system: SK-MEL-28
SNB-19 = test system: SNB-19
SNB-75 = test system: SNB-75
SR = test system: SR
U-251 = test system: U-251
HCC 2998 = test system: HCC 2998

| SMILES | GI50 (ACHN) | GI50 (CAKI-1) | GI50 (COLO 205) | GI50 (HL-60) | GI50 (HOP-62) | GI50 (IGROV-1) | GI50 (LOX IMVI) | GI50 (MCF7) | GI50 (MDA-N) | GI50 (NCI-H23) | GI50 (OVCAR-5) | GI50 (RPMI-8226) | GI50 (SF-295) | GI50 (SK-MEL-28) | GI50 (SNB-19) | GI50 (SNB-75) | GI50 (SR) | GI50 (U-251) | GI50 (HCC 2998) |
| --- | --- | --- | --- | --- | --- | --- | --- | --- | --- | --- | --- | --- | --- | --- | --- | --- | --- | --- | --- |
| Cc1cc(C)c2c(SCc3ccc(Cl)cc3Cl)nc(N)nc2n1 | 57.5 µM (inactive) | > 100 µM (inactive) | 34.8 µM (inactive) | > 100 µM (inactive) | 37.4 µM (inactive) | 28.7 µM (inactive) | 28.9 µM (inactive) | 31.6 µM (inactive) | > 100 µM (inactive) | > 100 µM (inactive) | > 100 µM (inactive) | 60.7 µM (inactive) | > 100 µM (inactive) | > 100 µM (inactive) | 58.9 µM (inactive) | 58.6 µM (inactive) | 33 µM (inactive) | 36.5 µM (inactive) | – |
| Cc1cc(C(=O)CCCCOc2ccc(C3=NCCO3)cc2)c(C)n1C | 35.4 µM (inactive) | 37.2 µM (inactive) | 52.4 µM (inactive) | 0.0883 µM (active) | 52.7 µM (inactive) | 37.2 µM (inactive) | – | 33.3 µM (inactive) | 28.1 µM (inactive) | 41.1 µM (inactive) | 71.6 µM (inactive) | 37.3 µM (inactive) | 34.4 µM (inactive) | 25.4 µM (inactive) | 25.1 µM (inactive) | 21 µM (inactive) | 29.4 µM (inactive) | 31.3 µM (inactive) | – |
| O=C(O)c1ccc2c(c1C(=O)O)C(=O)OC2(c1ccc(O)cc1)c1ccc(O)cc1 | > 100 µM (inactive) | > 100 µM (inactive) | > 100 µM (inactive) | > 100 µM (inactive) | > 100 µM (inactive) | > 100 µM (inactive) | > 100 µM (inactive) | > 100 µM (inactive) | > 100 µM (inactive) | > 100 µM (inactive) | > 100 µM (inactive) | > 100 µM (inactive) | > 100 µM (inactive) | > 100 µM (inactive) | > 100 µM (inactive) | > 100 µM (inactive) | > 100 µM (inactive) | > 100 µM (inactive) | – |
| NS(=O)(=O)c1ccc(Nc2c3ccccc3nc3c(C(=O)NCCO)cccc23)cc1 | 0.252 µM (active) | 0.198 µM (active) | 0.0762 µM (active) | 0.243 µM (active) | 0.167 µM (active) | 0.115 µM (active) | 0.124 µM (active) | 0.0373 µM (active) | 0.196 µM (active) | 0.132 µM (active) | 0.183 µM (active) | 0.0676 µM (active) | 0.191 µM (active) | 0.167 µM (active) | 0.0977 µM (active) | – | 0.0128 µM (active) | 0.0728 µM (active) | 0.182 µM (active) |
| CSc1c(C(=O)Nc2ccccc2)c(N)n(N)c(=O)c1C#N | – | > 100 µM (inactive) | > 100 µM (inactive) | > 100 µM (inactive) | – | > 100 µM (inactive) | > 100 µM (inactive) | > 100 µM (inactive) | > 100 µM (inactive) | > 100 µM (inactive) | > 100 µM (inactive) | > 100 µM (inactive) | – | > 100 µM (inactive) | > 100 µM (inactive) | > 100 µM (inactive) | > 100 µM (inactive) | > 100 µM (inactive) | > 100 µM (inactive) |
| COc1ccc(/C=C2\CN(C)CC3C2=NC(=S)NC3c2ccc(OC)cc2)cc1 (stereo not given) | 5.73 µM (inactive) | 6.64 µM (inactive) | 3.67 µM (inactive) | 2.19 µM (inactive) | 6.46 µM (inactive) | 2.98 µM (inactive) | 4.76 µM (inactive) | 2.82 µM (inactive) | 1.08 µM (active) | 7.96 µM (inactive) | 19.3 µM (inactive) | 2.99 µM (inactive) | 3.69 µM (inactive) | > 66.7 µM (inactive) | 5.66 µM (inactive) | – | 0.865 µM (active) | 8.55 µM (inactive) | 6.75 µM (inactive) |
| C[N+](C)(C)C(C1=CCCC1=O)c1ccccc1 (stereo not given) | 25.4 µM (inactive) | 24.5 µM (inactive) | > 100 µM (inactive) | 25.8 µM (inactive) | 24.8 µM (inactive) | 30.3 µM (inactive) | 18.7 µM (inactive) | 21.8 µM (inactive) | 33.4 µM (inactive) | 45.2 µM (inactive) | > 100 µM (inactive) | 15.8 µM (inactive) | > 100 µM (inactive) | 30.3 µM (inactive) | > 100 µM (inactive) | 52.8 µM (inactive) | 15.3 µM (inactive) | 20.6 µM (inactive) | – |
| COc1ccc(/C=C2\N=C(SC)N(CN3CCOCC3)C2=O)cc1 | 43.3 µM (inactive) | – | 36.3 µM (inactive) | 56.9 µM (inactive) | 69.7 µM (inactive) | 37.5 µM (inactive) | 37.2 µM (inactive) | 16 µM (inactive) | 71.1 µM (inactive) | > 100 µM (inactive) | > 100 µM (inactive) | 24.8 µM (inactive) | 98.9 µM (inactive) | > 100 µM (inactive) | 84.5 µM (inactive) | 60.7 µM (inactive) | 30.8 µM (inactive) | 51.6 µM (inactive) | – |
| C(=N\Cc1ccccc1)/c1ccccc1-c1ccccc1/C=N/Cc1ccccc1 | > 8.53 µM (inactive) | > 10 µM (inactive) | > 10 µM (inactive) | 2.36 µM (inactive) | > 10 µM (inactive) | > 7.46 µM (inactive) | 5.42 µM (inactive) | 3.82 µM (inactive) | 5.33 µM (inactive) | > 8.67 µM (inactive) | > 10 µM (inactive) | 3.01 µM (inactive) | > 10 µM (inactive) | > 7.57 µM (inactive) | > 10 µM (inactive) | 4.59 µM (inactive) | 3.26 µM (inactive) | 6.5 µM (inactive) | – |
| CC[C@@]1(C[C@H]2C[C@@]3(C(=O)OC)c4[nH]c5ccccc5c4CCN3C2=S)COC2(CCCCC2)O1 | 45.8 µM (inactive) | > 100 µM (inactive) | 7.41 µM (inactive) | 4.06 µM (inactive) | 22.2 µM (inactive) | 61.7 µM (inactive) | 78 µM (inactive) | 33.3 µM (inactive) | 66.8 µM (inactive) | 21.4 µM (inactive) | > 100 µM (inactive) | – | 22 µM (inactive) | – | 38.5 µM (inactive) | 17.8 µM (inactive) | 4.44 µM (inactive) | 3.75 µM (inactive) | 15.2 µM (inactive) |
| O=c1[nH][nH]c(=O)n1/N=C/c1ccccc1 | > 100 µM (inactive) | > 100 µM (inactive) | > 100 µM (inactive) | > 100 µM (inactive) | > 100 µM (inactive) | > 100 µM (inactive) | > 100 µM (inactive) | > 100 µM (inactive) | > 100 µM (inactive) | > 100 µM (inactive) | > 100 µM (inactive) | > 100 µM (inactive) | > 100 µM (inactive) | > 100 µM (inactive) | > 100 µM (inactive) | > 100 µM (inactive) | > 100 µM (inactive) | > 100 µM (inactive) | – |
| OC1CCCCCCCCCCC1[S+]1CCCC1.O[B-](F)(F)F (stereo not given) | > 100 µM (inactive) | > 100 µM (inactive) | 62.7 µM (inactive) | > 100 µM (inactive) | > 100 µM (inactive) | > 100 µM (inactive) | > 100 µM (inactive) | > 100 µM (inactive) | > 100 µM (inactive) | 72.6 µM (inactive) | > 100 µM (inactive) | 36.1 µM (inactive) | > 100 µM (inactive) | 68.4 µM (inactive) | > 100 µM (inactive) | – | > 100 µM (inactive) | > 100 µM (inactive) | > 100 µM (inactive) |
| COC(=O)CC[C@@H](C)[C@H]1CC[C@H]2[C@@H]3CC[C@@H]4C[C@H](O)CC[C@]4(C)[C@H]3CC[C@]12C | 20.7 µM (inactive) | 17.9 µM (inactive) | 19.5 µM (inactive) | 15 µM (inactive) | 18.4 µM (inactive) | 17.2 µM (inactive) | 18.7 µM (inactive) | 18.3 µM (inactive) | 19.1 µM (inactive) | 16.5 µM (inactive) | 19.8 µM (inactive) | 11.7 µM (inactive) | 18.2 µM (inactive) | 19 µM (inactive) | 21.6 µM (inactive) | 19.1 µM (inactive) | 14.9 µM (inactive) | 20.7 µM (inactive) | – |
| CCCCCCCCCCCC[C@@H](O)[C@H]1CC[C@H]([C@H]2CC[C@H]([C@H](O)CC[C@H](O)CCCCCCCC3=C[C@H](C)OC3=O)O2)O1 | 0.0933 µM (active) | 2.67 µM (inactive) | 1.86 µM (inactive) | 1.26 µM (inactive) | 1.57 µM (inactive) | 1.65 µM (inactive) | 1.17 µM (inactive) | 1.15 µM (inactive) | 1.9 µM (inactive) | 0.0201 µM (active) | 1.69 µM (inactive) | 1.2 µM (inactive) | 1.26 µM (inactive) | 1.63 µM (inactive) | 1.23 µM (inactive) | 1.75 µM (inactive) | 2.03 µM (inactive) | 2.13 µM (inactive) | – |
| NCCCNCCCCNCCCN [SPERMINE TETRAHYDROCHLORIDE] | 4.12 µM (inactive) | 5.97 µM (inactive) | 4.67 µM (inactive) | 4.26 µM (inactive) | > 100 µM (inactive) | 13.2 µM (inactive) | 8.11 µM (inactive) | 2.79 µM (inactive) | 15.2 µM (inactive) | 67 µM (inactive) | > 100 µM (inactive) | 0.284 µM (active) | > 100 µM (inactive) | – | > 100 µM (inactive) | > 100 µM (inactive) | 3.74 µM (inactive) | > 42 µM (inactive) | > 48.5 µM (inactive) |
